This note sets out measurements from US7265124B2, “Cristalline and amorphous form of a triazolo (4,5-D) pyridimine compound” (AstraZeneca AB, priority 2000, dated 2007).

Common to all, as to conditions: qualitative statement, no test described
Series [1] can be described thus: metabolic stability (stated in words only). Format: in vitro ADME.
Series [2] concerns the target P2T (P2YADP or P2TAC) receptor (Homo sapiens, UniProt Q9H244). As to the kind of experiment: P2T receptor antagonism (potency stated in words only).
A short description of series [3]: bioavailability (stated in words only). The series is classed as in vivo.

P2T (P2YADP or P2TAC) receptor, sequence (Q9H244 whole entry): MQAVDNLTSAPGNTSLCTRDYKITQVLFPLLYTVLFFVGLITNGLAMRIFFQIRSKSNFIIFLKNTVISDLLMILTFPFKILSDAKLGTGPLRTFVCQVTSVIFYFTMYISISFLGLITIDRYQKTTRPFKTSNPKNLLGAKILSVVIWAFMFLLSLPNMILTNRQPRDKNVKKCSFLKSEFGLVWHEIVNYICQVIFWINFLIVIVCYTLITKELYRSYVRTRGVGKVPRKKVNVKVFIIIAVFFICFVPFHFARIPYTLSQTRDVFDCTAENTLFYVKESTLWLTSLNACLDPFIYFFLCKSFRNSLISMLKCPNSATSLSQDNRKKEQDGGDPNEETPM

In the case of `CCCSc1nc(N[C@@H]2C[C@H]2c2ccc(F)c(F)c2)c2nnn([C@@H]3C[C@H](OCCO)[C@@H](O)[C@H]3O)c2n1` (relative stereo) [compound of formula (I), {1S-[1α, 2α, 3β(1S*,2R*),5β]}-3-(7-{[2-3,4-difluorophenyl)cyclopropyl]amino}-5-(propylthio)-3H-1,2,3-triazolo[4,5-d]pyrimidin-3-yl)-5-(2-hydroxyethoxy)cyclopentane-1,2-diol], the metabolic stability result in series [1] was “surprisingly high”. The “potency as a P2T (P2YADP or P2TAC) antagonist” value in series [2] is reported as “high potency”. Moreover, the bioavailability entry in series [3] is “surprisingly high”.
